Experiments:
[1] = even if several grams are taken; cited from earlier work
[2] = Viscosity of samples from the structural analysis; assay type: physicochemical
Description: For structural analysis, a monodiglycerol ester of 3-hydroxybutyric acid crosslinked with succinic acid is produced according to synthesis route (A) and characterized by gel permeation chromatography (GPC) and acid number determination.
(§1) Subsequently, in the second method step (b), 100 g of the monodiglycerol ester of 3-hydroxybutyric acid are caused to react with 10 g succinic acid anhydride according to a first batch with stirring at 80° C. for 20 h and the water formed is continuously withdrawn by distillation. A sample is taken for further analysis (Sample A) and then another 7 g succinic acid anhydride are added and caused to react at 120° C. for another 6 h. The water formed is withdrawn by continuous distillation. Then another sample is taken for analysis (sample C).
as §1, with “Furthermore,” for “Subsequently,”, “(b), according to a second approach,” for “(b),”, “with the addition of 100 μL of titanium tetrabutylate (catalyst)” for “according to a first batch”, “(sample B)” for “(Sample A)”, “80°” for “120°”, “D).” for “C).”

Question: For `CC(O)CC(=O)O` (centres unmarked) [3-hydroxybutyric acid], which Duration of ketosis [1] is on record?
Answer: three to four

Question: With “monodiglycerol esters of 3-hydroxybutyric acid [Educt]” as the compound, how does the “Viscosity at 25° C.” value [2] read?
Answer: 15,700 Pas
